Measurements taken from ChEMBL document CHEMBL1201862, “PubChem BioAssay data set” (2004).
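Results reflect a 48-hour exposure of cells in 96-well plates to compound at five concentrations. At the GI50, growth is halved.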 The source made the active and inactive calls. Rule as the data show it: active = GI50 up to about 1.1 µM and inactive = higher.

Tests used:
Assay in all cases: NCI tumour cell line growth inhibition, 48 h
COLO 205 = tested on: COLO 205
HCT-116 = tested on: HCT-116
HT-29 = tested on: HT-29
IGROV-1 = tested on: IGROV-1
KM12 = tested on: KM12
M14 = tested on: M14
NCI-H226 = tested on: NCI-H226
NCI-H23 = tested on: NCI-H23
NCI-H460 = tested on: NCI-H460
NCI-H522 = tested on: NCI-H522
OVCAR-4 = tested on: OVCAR-4
PC-3 = tested on: PC-3
SF-268 = tested on: SF-268
SF-295 = tested on: SF-295
SF-539 = tested on: SF-539
SK-MEL-2 = tested on: SK-MEL-2
SN12C = tested on: SN12C
SNB-75 = tested on: SNB-75
TK-10 = tested on: TK-10
UACC-62 = tested on: UACC-62

Measured: GI50

CCOC(=S)SCC(=O)O
inactive: COLO 205 > 100 µM | HCT-116 > 100 µM | HT-29 > 100 µM | IGROV-1 > 100 µM | KM12 > 100 µM | M14 > 100 µM | NCI-H226 > 100 µM | NCI-H23 > 100 µM | NCI-H460 > 100 µM | NCI-H522 > 100 µM | OVCAR-4 > 100 µM | PC-3 > 100 µM | SF-268 > 100 µM | SF-295 > 100 µM | SF-539 > 100 µM | SK-MEL-2 > 100 µM | SN12C > 100 µM | SNB-75 > 100 µM | TK-10 > 100 µM | UACC-62 > 100 µM

N#CC1=CNc2sccc2S1(=O)=O
inactive: COLO 205 > 100 µM | HCT-116 89.7 µM | HT-29 > 100 µM | IGROV-1 > 100 µM | KM12 1.68 µM | M14 > 100 µM | NCI-H226 > 100 µM | NCI-H23 > 100 µM | NCI-H460 40.7 µM | NCI-H522 > 100 µM | OVCAR-4 > 100 µM | PC-3 > 100 µM | SF-268 81.7 µM | SF-295 > 100 µM | SF-539 > 100 µM | SK-MEL-2 > 100 µM | SN12C > 100 µM | SNB-75 > 100 µM | TK-10 > 100 µM | UACC-62 > 100 µM

C=CCCCN(C(=O)c1ccccc1)c1ccc(C(=O)OC)o1
inactive: COLO 205 81.1 µM | HCT-116 78 µM | HT-29 > 100 µM | IGROV-1 > 100 µM | KM12 95.1 µM | M14 > 100 µM | NCI-H226 > 100 µM | NCI-H23 > 100 µM | NCI-H460 > 100 µM | NCI-H522 64.3 µM | OVCAR-4 > 100 µM | PC-3 83.8 µM | SF-268 > 100 µM | SF-295 > 100 µM | SF-539 > 100 µM | SK-MEL-2 > 100 µM | SN12C > 100 µM | SNB-75 > 100 µM | TK-10 > 100 µM | UACC-62 > 100 µM

O=[N+]([O-])c1ccc2[nH]c(=S)[nH]c(=S)c2c1
inactive: COLO 205 > 100 µM | HCT-116 > 100 µM | HT-29 > 100 µM | IGROV-1 > 100 µM | KM12 > 100 µM | M14 > 100 µM | NCI-H226 > 100 µM | NCI-H23 > 100 µM | NCI-H460 > 100 µM | NCI-H522 > 100 µM | OVCAR-4 > 100 µM | PC-3 > 100 µM | SF-268 > 100 µM | SF-295 > 100 µM | SF-539 > 100 µM | SK-MEL-2 > 100 µM | SN12C > 100 µM | SNB-75 20.7 µM | TK-10 > 100 µM | UACC-62 > 100 µM

Cc1c2c(OCCCCN3CCN(c4ncccn4)CC3)nn(C)c(=O)c2c(C)n1-c1ccccc1
inactive: COLO 205 19 µM | HCT-116 16.9 µM | HT-29 24.8 µM | IGROV-1 17.8 µM | KM12 18.4 µM | M14 20.7 µM | NCI-H226 20.7 µM | NCI-H23 19.1 µM | NCI-H460 17.4 µM | NCI-H522 18.4 µM | OVCAR-4 19.5 µM | PC-3 20.4 µM | SF-268 18.7 µM | SF-295 16.4 µM | SF-539 17.6 µM | SK-MEL-2 19.6 µM | SN12C 17.2 µM | SNB-75 19.5 µM | TK-10 19 µM | UACC-62 16.8 µM

Cc1nc2sc3ccccc3n2c(=O)c1/N=N/c1ccc(Cl)cc1
inactive: COLO 205 > 100 µM | HCT-116 > 100 µM | HT-29 > 100 µM | IGROV-1 > 100 µM | KM12 > 100 µM | M14 > 100 µM | NCI-H226 > 100 µM | NCI-H23 > 100 µM | NCI-H460 > 100 µM | NCI-H522 > 100 µM | OVCAR-4 > 100 µM | PC-3 > 100 µM | SF-268 > 100 µM | SF-295 > 100 µM | SF-539 > 100 µM | SK-MEL-2 > 100 µM | SN12C > 100 µM | SNB-75 > 100 µM | TK-10 > 100 µM | UACC-62 > 100 µM

CN(CCCNC(=O)c1nn(-c2ccc(Cl)cc2Cl)c2c1ccc1ccccc12)CCCNC(=O)c1nn(-c2ccc(Cl)cc2Cl)c2c1ccc1ccccc12
inactive: COLO 205 1.91 µM | HCT-116 1.67 µM | HT-29 1.57 µM | IGROV-1 1.74 µM | KM12 1.77 µM | M14 1.6 µM | NCI-H226 2.25 µM | NCI-H23 1.81 µM | NCI-H460 1.78 µM | NCI-H522 1.46 µM | OVCAR-4 1.68 µM | PC-3 1.68 µM | SF-268 1.61 µM | SF-295 1.67 µM | SF-539 1.76 µM | SK-MEL-2 1.65 µM | SN12C 1.65 µM | SNB-75 1.75 µM | TK-10 1.89 µM | UACC-62 1.65 µM

O=C(CCCN1CC=C(n2c(=O)[nH]c3ccccc32)CC1)c1cccs1
inactive: COLO 205 > 100 µM | HCT-116 > 100 µM | HT-29 52.4 µM | IGROV-1 > 100 µM | KM12 > 100 µM | M14 > 100 µM | NCI-H226 > 100 µM | NCI-H23 > 100 µM | NCI-H460 63.5 µM | NCI-H522 > 100 µM | OVCAR-4 > 100 µM | PC-3 93.3 µM | SF-268 > 100 µM | SF-295 > 100 µM | SF-539 > 100 µM | SK-MEL-2 > 100 µM | SN12C > 100 µM | SNB-75 > 100 µM | TK-10 67.5 µM | UACC-62 > 100 µM

FC(F)(F)c1cccnc1Sc1nc2ccccc2s1
inactive: COLO 205 > 100 µM | HCT-116 > 100 µM | HT-29 > 100 µM | IGROV-1 42.4 µM | KM12 > 100 µM | M14 37.6 µM | NCI-H226 2.67 µM | NCI-H23 80.4 µM | NCI-H460 > 100 µM | NCI-H522 80 µM | OVCAR-4 > 100 µM | PC-3 > 100 µM | SF-268 > 100 µM | SF-295 63 µM | SF-539 > 100 µM | SK-MEL-2 20.7 µM | SN12C > 100 µM | SNB-75 59.6 µM | TK-10 > 100 µM | UACC-62 > 100 µM

COC(=O)/C(=N\N)C(C(=O)C(=O)Nc1cccc([N+](=O)[O-])c1)c1nc2ccc(C(=O)c3ccccc3)cc2nc1O (stereo not given)
inactive: COLO 205 > 100 µM | HCT-116 > 100 µM | HT-29 > 100 µM | IGROV-1 > 100 µM | KM12 > 100 µM | M14 > 100 µM | NCI-H226 > 100 µM | NCI-H23 > 100 µM | NCI-H460 > 100 µM | NCI-H522 72.1 µM | OVCAR-4 40.2 µM | PC-3 84.5 µM | SF-268 > 100 µM | SF-295 96.4 µM | SF-539 > 100 µM | SK-MEL-2 > 100 µM | SN12C > 100 µM | SNB-75 > 100 µM | TK-10 39.9 µM | UACC-62 96.2 µM

O=C1CCCC2=C(N1)C(=O)C=CC2=O
inactive: COLO 205 23.8 µM | HCT-116 33.7 µM | HT-29 42.8 µM | IGROV-1 43 µM | KM12 25.6 µM | M14 39.8 µM | NCI-H226 11.1 µM | NCI-H23 39.6 µM | NCI-H460 45.3 µM | NCI-H522 13.6 µM | OVCAR-4 45.7 µM | PC-3 16.1 µM | SF-268 46.2 µM | SF-295 41.7 µM | SF-539 44.4 µM | SK-MEL-2 44 µM | SN12C 29.2 µM | SNB-75 43.8 µM | TK-10 42.4 µM | UACC-62 42.2 µM

Cc1csc(-n2nc(C)cc2C)n1
inactive: COLO 205 > 100 µM | HCT-116 > 100 µM | HT-29 > 100 µM | IGROV-1 > 100 µM | KM12 > 100 µM | M14 > 100 µM | NCI-H226 > 100 µM | NCI-H23 > 100 µM | NCI-H460 > 100 µM | NCI-H522 > 100 µM | OVCAR-4 > 100 µM | PC-3 > 100 µM | SF-268 > 100 µM | SF-295 > 100 µM | SF-539 > 100 µM | SK-MEL-2 > 100 µM | SN12C > 100 µM | SNB-75 > 100 µM | TK-10 > 100 µM | UACC-62 > 100 µM

C=C1C(=O)CCC1C(=O)O (stereo not given)
inactive: COLO 205 > 100 µM | HCT-116 > 100 µM | HT-29 > 100 µM | IGROV-1 > 100 µM | KM12 > 100 µM | M14 > 100 µM | NCI-H226 > 100 µM | NCI-H23 > 100 µM | NCI-H460 > 100 µM | NCI-H522 > 100 µM | OVCAR-4 > 100 µM | PC-3 > 100 µM | SF-268 > 100 µM | SF-295 > 100 µM | SF-539 > 100 µM | SK-MEL-2 > 100 µM | SN12C > 100 µM | SNB-75 11.8 µM | TK-10 > 100 µM | UACC-62 > 100 µM

C=CCSSCC=C
inactive: COLO 205 41.6 µM | HCT-116 13.6 µM | HT-29 38.4 µM | IGROV-1 > 71.6 µM | KM12 68.9 µM | M14 31.8 µM | NCI-H226 32.1 µM | NCI-H23 > 58.3 µM | NCI-H460 32.4 µM | NCI-H522 15.9 µM | OVCAR-4 > 76.6 µM | PC-3 39.8 µM | SF-268 47.9 µM | SF-295 55.5 µM | SF-539 29.5 µM | SK-MEL-2 > 71.1 µM | SN12C 36.7 µM | SNB-75 60.8 µM | TK-10 > 100 µM | UACC-62 44.3 µM
